The record followed here is article PMC5622025, “Synthesis and biological evaluation of tricyclic matrinic derivatives as a class of novel anti-HCV agents” (Chemistry Central Journal, 2017).

One data set deals with HCV. The data set is described as follows: Anti-HCV effect in vitro, intracellular HCV RNA by real-time RT-PCR in infected Huh7.5 cells. The format is cell-based, hepatitis C virus. The conditions noted are these: for EC50: read-out: EC50 (concentration required to inhibit HCV growth by 50%); for SI (ratio of CC50 to EC50): Huh7.5 cells. As for the experimental part:
(§1) All the target compounds were evaluated for their anti-HCV activities (EC50) and cytotoxicities (CC50) in human Huh7.5 cells using specific real-time RT-PCR assay, as described earlier. As an important indicator, the selectivity index (SI) was calculated as a ratio of CC50 to EC50. Anti-HCV ability of a given compound was estimated by combining its EC50 with SI values.
(§2) Human liver cell line Huh7.5 cells (kindly provided by Vertex Pharmaceuticals, Inc., Boston, MA) were cultured in Dulbecco’s modified eagle medium (DMEM) supplemented with 10% inactivated fetal bovine serum and 1% penicillin–streptomycin (invitrogen). Cells were digested with 0.05% trypsin-ethylene diamine tetraacetic acid (EDTA) and split twice a week.
Huh7.5 cells were seeded into 96-well or 6-well plates (Costar) at a density of 3 × 10^4 cells cm^−2. After 24 h incubation, the cells were infected with HCV viral stock (45 IU cell^−1) and simultaneously treated with the test compounds at various concentrations or solvent as control. The culture medium was removed after 72 h inoculation, the intracellular total RNA (in 96-well plates) was extracted with RNeasy Mini Kit (Qiagen), and total intracellular proteins (in 6-well plates) were extracted with Cyto-Buster Protein Extraction Reagent added with 1 mM protease inhibitor cocktail. The intracellular HCV RNA was quantified with a real time one-step reverse-transcription polymerase chain reaction (RT-PCR).

A further data set relates to Huh7.5 cells. The data set is described as follows: Cytotoxicity assay (MTT) in Huh7.5 cells. The format is cell-based, human. As for the experimental part: as §1, §2
(§3) Huh7.5 cells were seeded into 96-well plates (Costar) at a density of 3 × 10^4 cells cm^−2. After 24 h incubation, fresh culture medium containing test compounds at various concentrations were added. 72 h later, cytotoxicity was evaluated with 3-(4,5-dimethylthiazol-2-yl)-2,5-diphenyltetrazolium bromide (MTT).

Data set [1] in a line: Cytotoxicity assay (MTT) in Huh7.5 cells. The format is cell-based, human. The conditions noted are these: human. Here is the method:
as §1, §2, §3

[2] abbreviates: HCV-infected Huh7.5 cells, 72 h, real-time RT-PCR.
[3] abbreviates: Huh7.5 cells, 72 h, MTT, read-out: CC50 (cytotoxic concentration required to inhibit Huh7.5 cell growth by 50%).
Where [4] appears, read: Hepatitis C virus, Huh7.5, 72 h.

Counter-ions that a name gives are not always drawn. Like-named read-outs stand apart in the source and are kept apart here.

For `OCCCC[C@@H]1[C@H]2CCCN3CCC[C@@H](CN1Cc1ccc(F)cc1)[C@@H]23` [3a], in the data set with HCV (setting [2]), the EC50 is 2.99 ± 1.51 µM. For the same compound, in the data set with HCV, the “SI (ratio of CC50 to EC50)” value is 95.3. In addition, the CC50 in the data set with Huh7.5 cells worked out at 285 ± 7.45 µM.
Turning to `CCCN1C[C@@H]2CCCN3CCC[C@@H]([C@H]23)[C@H]1CCCCO` [3b], in the data set on HCV (setting [2]), the EC50 is 16.4 ± 10.9 µM. The “SI (ratio of CC50 to EC50)” value in the data set on HCV is recorded as above 30.5. For the same compound, in the data set on Huh7.5 cells, the CC50 is above 500 µM.
For `CCCCCCCN1C[C@@H]2CCCN3CCC[C@@H]([C@H]23)[C@H]1CCCCO` [3c] the same measures were 1.01 ± 0.55 µM, 32.9 and 33.3 ± 6.49 µM.
In the same order, the values of `CCCCCCCCN1C[C@@H]2CCCN3CCC[C@@H]([C@H]23)[C@H]1CCCCO` [3d] are 0.8 ± 0.26 µM, 22.3 and 17.8 ± 2.44 µM.
For `COC(=O)CCC[C@@H]1[C@H]2CCCN3CCC[C@@H](CN1Cc1ccc(OC)cc1)[C@@H]23.Cl.Cl` [6a, Methyl 12N-(4-methoxybenzyl)matrinate dihydrochloride] the same measures were 7.01 ± 1.51 µM, 59.1 and 414 ± 7.34 µM.
In the case of `COC(=O)CCC[C@@H]1[C@H]2CCCN3CCC[C@@H](CN1Cc1ccc(C)cc1)[C@@H]23` [6b, Methyl 12N-(4-methylbenzyl)matrinate], in the data set with HCV (setting [2]), the EC50 is 1.73 ± 1.36 µM. The “SI (ratio of CC50 to EC50)” value with HCV is 76.8. In addition, in the data set on Huh7.5 cells (setting [3]), the CC50 is 133 ± 7.53 µM.
In the same order, the values of `C=Cc1ccc(CN2C[C@@H]3CCCN4CCC[C@@H]([C@H]34)[C@H]2CCCC(=O)OC)cc1` [6c, Methyl 12N-(4-vinylbenzyl)matrinate] are 1.61 ± 0.76 µM, 50.4 and 81.2 ± 12.9 µM.
For `COC(=O)CCC[C@@H]1[C@H]2CCCN3CCC[C@@H](CN1Cc1ccc(F)cc1F)[C@@H]23` [6d, Methyl 12N-(2,4-difluorobenzyl)matrinate] the same measures were 1.69 ± 1.47 µM, 154 and 261 ± 28.7 µM.
Consider `COC(=O)CCCC1C2CCCN3CCCC(CN1Cc1ccc([N+](=O)[O-])cc1)C23.Cl.Cl` (stereo not shown) [6e, Methyl 12N-(4-nitrobenzyl)matrinate dihydrochloride], for which the EC50 with HCV (setting [2]) was 14.2 ± 3.13 µM. For the same compound, the “SI (ratio of CC50 to EC50)” value with HCV is on record as 16.5. In addition, the CC50 in the data set on Huh7.5 cells is 235 ± 48.2 µM.
Consider `COC(=O)CCC[C@@H]1[C@H]2CCCN3CCC[C@@H](CN1Cc1ccncc1)[C@@H]23` [6f, Methyl 12N-(pyridin-4-ylmethyl)matrinate], for which, in the data set on HCV (setting [2]), the EC50 came out at 4.66 ± 0.35 µM. Besides, the “SI (ratio of CC50 to EC50)” value in the data set with HCV is on record as above 107. In the data set with Huh7.5 cells, this compound had a CC50 above 500 µM.
For the compound `Cl.Cl.OCCCCC1C2CCCN3CCCC(CN1Cc1ccc(Cl)cn1)C23` (stereo not shown) [7 g, 12N-(5-Chloropyridin-2-ylmethyl)matrinol dihydrochloride], the EC50 in the data set on HCV (setting [2]) is 10.9 ± 5.59 µM. Moreover, the “SI (ratio of CC50 to EC50)” value in the data set with HCV is above 45.9. This compound had a CC50 in the data set on Huh7.5 cells above 500 µM.
On to `O=C(CN1C[C@@H]2CCCN3CCC[C@@H]([C@H]23)[C@H]1CCCCO)Nc1ccccc1` [7 h, 12N-(2-Oxo-2-(phenylamino)ethyl)matrinol], for which the EC50 in the data set with HCV (setting [2]) was found to be 46.7 ± 41 µM. Also, in the data set on HCV, the “SI (ratio of CC50 to EC50)” value is above 10.7. Moreover, the CC50 with Huh7.5 cells is above 500 µM.
For `C=Cc1ccc(CN2C[C@@H]3CCCN4CCC[C@@H]([C@H]34)[C@H]2CCCCO)cc1.Cl.Cl` [7c, 12N-(4-Vinylbenzyl)matrinol dihydrochloride] the same measures were 3.16 ± 0.51 µM, 45.3 and 143 ± 32.3 µM.
Take `OCCCCC1C2CCCN3CCCC(CN1Cc1ccc(F)cc1F)C23` (stereo not shown) [7d, 12N-(2,4-Difluorobenzyl)matrinol dihydrochloride]: in the data set on HCV (setting [2]), the EC50 was below 2.06 µM. The CC50 in the data set on Huh7.5 cells (setting [3]) turned out to be 266 ± 9.47 µM.
`Cl.Cl.OCCCC[C@@H]1[C@H]2CCCN3CCC[C@@H](CN1Cc1ccncc1)[C@@H]23` [7e, 12N-(Pyridin-4-ylmethyl)matrinol dihydrochloride]: in the data set with HCV (setting [2]), the EC50 was found to be 9.03 ± 5.58 µM. In the data set on HCV, the “SI (ratio of CC50 to EC50)” value was above 55.4. For the same compound, the CC50 in the data set with Huh7.5 cells was above 500 µM.
In the same order, the values of `OCCCCC1C2CCCN3CCCC(CN1Cc1cccnc1)C23` (stereo not shown) [7f, 12N-(Pyridin-3-ylmethyl)matrinol] are 4.39 ± 3.01 µM, above 114 and above 500 µM.
For `Cl.Cl.O=C(CN1CC2CCCN3CCCC(C1CCCCO)C23)Nc1ccc(C(F)(F)F)cc1` (stereo not shown) [7i, 12N-(2-Oxo-2-((4-(trifluoromethyl)phenyl)amino)ethyl)matrinol dihydrochloride] the same measures were 4.19 ± 1.44 µM, 20.6 and 86.2 ± 4.33 µM.
In the same order, the values of `COc1ccc(CN2C[C@@H]3CCCN4CCC[C@@H]([C@H]34)[C@H]2CCCC(C)(C)O)cc1.Cl.Cl` [10a, 1′,1′-Dimethyl-12N-(4-methoxybenzyl)matrinol dihydrochloride] are 11.7 ± 0.06 µM, 12.0 and above 140 µM.
Turning to `Cc1ccc(CN2CC3CCCN4CCCC(C2CCCC(C)(C)O)C34)cc1.Cl.Cl` (stereo not shown) [10b, 1′,1′-Dimethyl-12N-(4-methylbenzyl)matrinol dihydrochloride], in the data set with HCV (setting [2]), the EC50 worked out at 0.82 ± 0.26 µM. Also, the “SI (ratio of CC50 to EC50)” value in the data set with HCV amounted to 67.9. The compound further gave a CC50 with Huh7.5 cells of 55.7 ± 7.5 µM.
With `CCC(O)(CC)CCC[C@@H]1[C@H]2CCCN3CCC[C@@H](CN1Cc1ccc(C)cc1)[C@@H]23.Cl.Cl` [10c, 1′,1′-Diethyl-12N-(4-methylbenzyl)matrinol dihydrochloride], in the data set with HCV (setting [2]), the EC50 was below 0.23 µM. In the data set with HCV, the “SI (ratio of CC50 to EC50)” value is reported as above 53.5. In the data set on Huh7.5 cells, this compound showed a CC50 of 12.3 ± 4.23 µM.
In the same order, the values of `CC(C)(O)CCCC1C2CCCN3CCCC(CN1Cc1ccc(F)cc1F)C23.Cl.Cl` (stereo not shown) [10d, 1′,1′-Dimethyl-12N-(2,4-difluorobenzyl)matrinol dihydrochloride] are 6.55 ± 2.69 µM, 23.8 and 156 ± 37.9 µM.
For the compound `CC(C)(O)CCC[C@@H]1[C@H]2CCCN3CCC[C@@H](CN1Cc1ccncc1)[C@@H]23` [10e, 1′,1′-Dimethyl-12N-(4-pyridylmethyl)matrinol], in the data set with HCV (setting [2]), the EC50 came to 80.4 µM. The same compound registered a CC50 with Huh7.5 cells above 500 µM.
In the case of `COC(=O)C/C=C\C1C2CCCN3CCCC(CN1Cc1ccc(OC)cc1)C23` (stereo not drawn) [13a, (Z)-Methyl 12N-(4-methoxybenzyl)-Δ^βγ-matrinic crotonate], the EC50 in the data set on HCV (setting [2]) is 16.7 ± 4.71 µM. Further, the “SI (ratio of CC50 to EC50)” value in the data set with HCV is given as 19.5. In the data set with Huh7.5 cells, the CC50 came out at 326 ± 21 µM.
For `COC(=O)C/C=C\[C@@H]1[C@H]2CCCN3CCC[C@@H](CN1Cc1ccc(F)cc1)[C@@H]23.Cl.Cl` [13b, (Z)-Methyl 12N-(4-fluorobenzyl)-Δ^βγ-matrinic crotonate dihydrochloride] the same measures were 18.1 ± 6.49 µM, 14.4 and 260 ± 84.8 µM.
In the case of `COC(=O)C/C=C\[C@@H]1[C@H]2CCCN3CCC[C@@H](CN1Cc1cccc([N+](=O)[O-])c1)[C@@H]23.Cl.Cl` [13c, (Z)-Methyl 12N-(3-nitrobenzyl)-Δ^βγ-matrinic crotonate dihydrochloride], the EC50 in the data set on HCV (setting [2]) was determined as 40.4 ± 3.64 µM. Moreover, in the data set on HCV, the “SI (ratio of CC50 to EC50)” value is given as 10.0. The CC50 in the data set on Huh7.5 cells (setting [3]) was found to be 402 ± 83.6 µM.
Regarding `COc1ccc(CN2CC3CCCN4CCCC(C2/C=C\CCO)C34)cc1.Cl.Cl` (stereo not drawn) [14a, (Z)-12N-(4-Methoxybenzyl)-Δ^βγ-matrinic crotonol dihydrochloride], the EC50 with HCV (setting [2]) was 8.8 ± 2.15 µM. The “SI (ratio of CC50 to EC50)” value in the data set on HCV is given as 24.3. Moreover, the CC50 in the data set on Huh7.5 cells was determined as 214 ± 95 µM.
For `Cl.Cl.OCC/C=C\C1C2CCCN3CCCC(CN1Cc1ccc(F)cc1)C23` (stereo not drawn) [14b, (Z)-12N-4-(Fluorobenzyl)-Δ^βγ-matrinic crotonol dihydrochloride] the same measures were 13.6 ± 2.63 µM, 11.5 and 156 ± 65.8 µM.
Take `CCC[C@H](NC(=O)[C@@H]1[C@H]2CCC[C@H]2CN1C(=O)[C@@H](NC(=O)[C@@H](NC(=O)c1cnccn1)C1CCCCC1)C(C)(C)C)C(=O)C(=O)NC1CC1` [Tela, telaprevir, reference compound]: in the data set with HCV (setting [4]), the EC50 stood at 0.02 ± 0.02 µM. The “SI (ratio of CC50 to EC50)” value in the data set with HCV is on record as 1950. For the same compound, the CC50 at 72 h in data set [1] was 47.6 ± 0.61 µM.
Regarding `COC(=O)CCC[C@@H]1[C@H]2CCCN3CCC[C@@H](CN1Cc1ccc(F)cc1)[C@@H]23` [compound 2], the EC50 in the data set on HCV (setting [2]) was found to be 2.09 ± 1.65 µM. For the same compound, in the data set with HCV, the “SI (ratio of CC50 to EC50)” value came to 131. For the same compound, the CC50 with Huh7.5 cells (setting [3]) is 274 ± 8.35 µM.
On to `O=[N+]([O-])c1cccc(CN2C[C@@H]3CCCN4CCC[C@@H]([C@H]34)[C@H]2/C=C\CCO)c1` [compound 20, (Z)-12N-(3-nitrobenzyl)-Δ^βγ-matrinic crotonol dihydrochloride], for which, in the data set with HCV (setting [4]), the EC50 came to 18.4 ± 1.64 µM. In the data set on HCV, the “SI (ratio of CC50 to EC50)” value worked out at 17.0. In addition, the CC50 at 72 h in data set [1] (setting [3]) is 312 ± 31.1 µM.
